Assay results from patent US11834680B2, “Single kidney cell-derived organoids” (Rutgers, The State University of New Jersey, priority 2017, dated 2023).

What was measured:
[1] = tested on: cultured nephron progenitor cells; test: Effect of activating Wnt signaling on kidney organoid formation, shape and size; format: cell-based, human
Description: The organoids generated from multiple patient samples had various phenotypes during the different times of 2D culture. A similar diversity in phenotypes was also detected in the 3D culture stage. Moreover, the organoids formed in 3D culture had both spherical or branching shapes. When […] (1 μM) was added to the media as a pulse for 12 h then media was replaced with fresh media without CHIR, branching tubular shaped organoids increased. In another group of experiments, the effects of addition of 1× B27 supplement were examined.
The Wnt signaling pathway is known to trigger the initiation of nephron progenitor cell differentiation. The effects of activating Wnt signaling in organoid studies was examined. Cultured 2D and 3D cells were treated with a GSK3 inhibitor CHIR99021 (CHIR), which activates the canonical Wnt signaling pathway. […] On the other hand, branching tubular shaped organoids increased.

[2] = tested on: Nephrectomy-derived normal adjacent tissue (NAT) and RCC cells; test: Organoid forming efficiency (OFE) of kidney cells in 2D stage I / 3D Matrigel stage II culture; format: cell-based, human
Description: The human kidney contains up to 2 million epithelial nephrons responsible for blood filtration. Regenerating the kidney requires the induction of the more than 20 distinct cell types required for excretion and the regulation of pH, and electrolyte and fluid balance. Herein is described the induction of progenitors for both collecting duct and nephrons via the directed differentiation of patient-derived normal and RCC cells derived from nephrectomy tissues. Under an IRB-approved protocol, nephrectomy specimens from high-risk RCC cases were collected and processed within 15 minutes of surgery. Areas containing tumor as deemed by the pathologist and normal adjacent tissue counterpart were microdissected. A 3D culture system fit for growth of kidney cells was first developed by isolating epithelial cells microdissected from primary RCC specimens. Qualified pathologists confirmed their renal origin from the corresponding H&E. Nephrectomy-derived normal adjacent tissue (NAT) and RCC cells were utilized to determine best conditions for generating organoids. A two-step methodology comprising a first phase of adult kidney stem cell enrichment, conducted in a 2D setting (stage I), followed by a second phase of organoid 3D growth obtained in pure matrigel chambers (stage II), was conducted. […] Stage I media included using either EGM2 or ADMED complete medium (with the addition of EGF, BFGF, IGF-1, VEGF, hydrocortisone, ascorbic acid, insulin, heparin, gentamicin, amphotericin-B, and 2% FBS).
Cells were placed in 3D droplet culture chambers in stage II complete media containing Matrigel, to mimic the basal lamina of the normal renal tissue, and growth factors in conditions that permits cellular self-organization of organoid forming cells. Kidney cells were embedded as single cells in 3D-well plates. Organoid formation was then followed microscopically daily for 2 weeks.

[3] = cultured 2D and 3D cells treated

Cc1c[nH]c(-c2cnc(NCCNc3ccc(C#N)cn3)nc2-c2ccc(Cl)cc2Cl)n1 [CHIR99021]
branching tubular shaped organoids ([1]; 1 μM added to the media as a pulse for 12 h, then fresh media): increased | cell death [1, 3]: accompanied by cell death | differentiation in cultured nephron progenitor cells [1, 3]: induced differentiation | organoid size [1, 3]: smaller size organoids | branching tubular shaped organoids ([1]; cultured 2D and 3D cells treated, concentration not given): increased

heparin
organoid forming efficiency (OFE) ([2]; addition to the culture media): improved

Insulin: culture medium supplement
organoid forming efficiency (OFE) ([2]; addition to the culture media): improved

VEGF
organoid forming efficiency (OFE) ([2]; addition to the culture media): improved

IGF-1: Insulin Growth Factor 1, culture medium supplement
organoid forming efficiency (OFE) ([2]; addition to the culture media): improved | organoid forming efficiency (OFE) ([2]; doubling the IGF-1 dose (2×) in culture): did not increase
